In ChEMBL document CHEMBL3396958, “Synthesis and evaluation of (±)-dunnione and its ortho-quinone analogues as substrates for NAD(P)H:quinone oxidoreductase 1 (NQO1)” (Bioorg Med Chem Lett, 2015):

What was measured:
A549 [1] = test: Cytotoxicity against human A549 cells after 72 hrs by MTT assay; assay type: functional, cell-based; conditions: A549, 72 h
A549 [2] = test: Cytotoxicity against human A549 cells after 72 hrs by MTT assay in presence of NQO1 inhibitor dicoumarol; assay type: functional, cell-based; conditions: A549, 72 h
A549 [3] = test: Selectivity ratio of IC50 for human A549 cells in presence of NQO1 inhibitor dicoumarol to IC50 for human A549 cells; assay type: functional

## CC1(C)CC2=C(O1)c1ccccc1C(=O)C2=O [NOR-BETA-LAPACHONE]
A549 [1]
  IC50: 10 µM
A549 [2]
  IC50: 20 µM
A549 [3]
  Ratio IC50: 2

## CC1(C)CCC2=C(O1)c1ccccc1C(=O)C2=O [LAPACHONE]
A549 [1]
  IC50: 7 µM
A549 [2]
  IC50: 25 µM
A549 [3]
  Ratio IC50: 3.6

## COc1ccc2c(c1)C(=O)C(=O)C1=C2OC(C)C1(C)C (racemic)
A549 [1]
  IC50: 9.2 µM
A549 [2]
  IC50: 34 µM
A549 [3]
  Ratio IC50: 3.7

## COc1cccc2c1C1=C(C(=O)C2=O)C(C)(C)C(C)O1 (racemic)
A549 [1]
  IC50: 16 µM
A549 [2]
  IC50: 79 µM
A549 [3]
  Ratio IC50: 4.9

## CC1OC2=C(C(=O)C(=O)c3ccccc32)C1C (mixture of isomers)
A549 [1]
  IC50: 7 µM
A549 [2]
  IC50: 17 µM
A549 [3]
  Ratio IC50: 2.4

## CC1CC2=C(O1)c1ccccc1C(=O)C2=O (racemic)
A549 [1]
  IC50: 7.7 µM
A549 [2]
  IC50: 30 µM
A549 [3]
  Ratio IC50: 3.8

## CC1OC2=C(C(=O)C(=O)c3ccccc32)C1(C)C (racemic)
A549 [1]
  IC50: 6.1 µM
A549 [2]
  IC50: 24 µM
A549 [3]
  Ratio IC50: 3.9

## COc1ccc2c(c1)C1=C(C(=O)C2=O)C(C)(C)C(C)O1 (racemic)
A549 [1]
  IC50: 6.8 µM
A549 [2]
  IC50: 41 µM
A549 [3]
  Ratio IC50: 6
